The assay has as its system Salmonella typhimurium. As to the kind of experiment: Antimutagenic activity in Salmonella Typhimurium TA98 assessed as inhibition of 3-nitrofluoranthene-induced mutation by Ames test. Type of assay: functional, Salmonella enterica subsp. enterica serovar Typhimurium. For orientation: In the Ames test, an excess of revertant colonies over the control signals mutagenicity.
For `COc1ccccc1-c1cc(=O)c2ccccc2o1`, the pID50 is 5.046. For `COc1ccc2oc(-c3ccccc3)c(O)c(=O)c2c1` the value was 5.62; for `O=c1cc(-c2ccccc2)oc2cccc(O)c12` [5-HYDROXYFLAVONE], 5.357. To `O=c1cc(-c2ccccc2)oc2ccc(O)cc12` [6-HYDROXYFLAVONE] belongs 6.699; to `O=c1cc(-c2ccccc2)oc2cc(O)ccc12` [7-HYDROXYFLAVONE], 5.456. To `O=c1cc(-c2ccc(O)cc2)oc2cc(O)cc(O)c12` [APIGENIN] belongs 7; to `O=c1cc(-c2ccc(O)cc2)oc2cc(O[C@@H]3O[C@H](CO)[C@@H](O)[C@H](O)[C@H]3O)cc(O)c12` [APIGETRIN], 5.62.

`O=c1cc(-c2ccccc2)oc2cc(O)cc(O)c12` [CHRYSIN]: the pID50 came out at 6. To `O=c1c(O)c(-c2ccccc2)oc2ccccc12` [FLAVONOL] belongs 6.538. To `O=c1cc(-c2ccc(O)c(O)c2)oc2cc(O[C@@H]3O[C@H](CO)[C@@H](O)[C@H](O)[C@H]3O)cc(O)c12` [GALUTEOLIN] belongs 5.092; to `COc1ccc([C@@H]2CC(=O)c3c(O)cc(O)cc3O2)cc1O` [HESPERETIN], 6.097. To `COc1cc(-c2oc3cc(O)cc(O)c3c(=O)c2O)ccc1O` [ISORHAMNETIN] belongs 6.097; to `O=c1c(O)c(-c2ccc(O)cc2)oc2cc(O)cc(O)c12` [KAEMPFEROL], 6.538.

With `O=c1c(O)c(-c2ccc(O)cc2O)oc2cc(O)cc(O)c12` [MORIN], the pID50 is 6.155. To `O=c1c(O)c(-c2cc(O)c(O)c(O)c2)oc2cc(O)cc(O)c12` [MYRICETIN] belongs 6.222; to `O=C1C[C@@H](c2ccc(O)cc2)Oc2cc(O)cc(O)c21` [NARINGENIN], 5.886; to `O=c1c(O)c(-c2ccc(O)c(O)c2)oc2cc(O)cc(O)c12` [QUERCETIN], 5.143.

As to `C[C@@H]1O[C@@H](OC[C@H]2O[C@@H](Oc3c(-c4ccc(O)c(O)c4)oc4cc(O)cc(O)c4c3=O)[C@H](O)[C@@H](O)[C@@H]2O)[C@H](O)[C@H](O)[C@H]1O` [RUTIN], the pID50 is 5.022. For `COc1ccc(-c2cc(=O)c3c(OC)c(OC)c(OC)c(OC)c3o2)cc1` [TANGERETIN] the value was 4.967.

The values above are taken from ChEMBL document CHEMBL1250491, “Multivariate QSAR study on the antimutagenic activity of flavonoids against 3-NFA on Salmonella typhimurium TA98” (2010).
